Measured values as given in ChEMBL document CHEMBL2074160, “Polyspecific drug and steroid clearance by an organic anion transporter of mammalian liver” (J Pharmacol Exp Ther, 1996).

Assays:
[1] = target: T1, Solute carrier organic anion transporter family member 1A1 (Rattus norvegicus, UniProt P46720); assay: TP_TRANSPORTER: inhibition of Ouabain uptake (Ouabain: 100 uM, Estrone-3-glucuronide: 100 uM) in Xenopus laevis oocytes; assay type: functional, cell-based, Oocyte; set-up: scale not given: the % may be the effect or the level left; details: probe Ouabain (100 uM), read-out: Activity
T1 sequence (P46720 whole entry): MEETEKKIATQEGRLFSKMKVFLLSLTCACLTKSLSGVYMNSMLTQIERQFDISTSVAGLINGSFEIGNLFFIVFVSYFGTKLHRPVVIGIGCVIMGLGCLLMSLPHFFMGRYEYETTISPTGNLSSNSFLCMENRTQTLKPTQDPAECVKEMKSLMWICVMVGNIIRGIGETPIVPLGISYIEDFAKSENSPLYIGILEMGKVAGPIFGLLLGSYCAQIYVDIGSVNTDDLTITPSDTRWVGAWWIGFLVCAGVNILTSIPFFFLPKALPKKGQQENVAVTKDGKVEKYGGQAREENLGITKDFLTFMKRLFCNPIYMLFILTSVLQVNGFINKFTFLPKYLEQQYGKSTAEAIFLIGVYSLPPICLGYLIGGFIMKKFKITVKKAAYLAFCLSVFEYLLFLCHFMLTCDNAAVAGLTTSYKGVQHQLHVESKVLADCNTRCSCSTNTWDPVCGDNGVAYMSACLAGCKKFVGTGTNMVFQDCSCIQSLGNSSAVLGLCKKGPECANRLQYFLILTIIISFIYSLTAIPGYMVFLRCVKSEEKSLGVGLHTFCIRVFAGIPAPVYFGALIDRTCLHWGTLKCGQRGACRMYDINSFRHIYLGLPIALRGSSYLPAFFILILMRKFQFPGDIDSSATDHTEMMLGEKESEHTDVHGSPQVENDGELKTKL

[2] = target: T1, Solute carrier organic anion transporter family member 1A1; assay: TP_TRANSPORTER: inhibition of Ouabain uptake (Ouabain: 100 uM, Estradiol-3-glucuronide: 100 uM) in Xenopus laevis oocytes; assay type: functional, cell-based, Oocyte; set-up: scale not given: the % may be the effect or the level left; details: probe Ouabain (100 uM), read-out: Activity
[3] = target: T1, Solute carrier organic anion transporter family member 1A1; assay: TP_TRANSPORTER: inhibition of Ouabain uptake (Ouabain: 100 uM, Aldosterone: 100 uM) in Xenopus laevis oocytes; assay type: functional, cell-based; set-up: scale not given: the % may be the effect or the level left; details: oocyte
[4] = target: T1, Solute carrier organic anion transporter family member 1A1; assay: TP_TRANSPORTER: inhibition of Ouabain uptake (Ouabain: 100 uM, Corticosterone: 100 uM) in Xenopus laevis oocytes; assay type: functional, cell-based; set-up: scale not given: the % may be the effect or the level left; details: oocyte
[5] = target: T1, Solute carrier organic anion transporter family member 1A1; assay: TP_TRANSPORTER: inhibition of Ouabain uptake (Ouabain: 100 uM, Dexamethasone: 100 uM) in Xenopus laevis oocytes; assay type: functional, cell-based, Oocyte; set-up: scale not given: the % may be the effect or the level left; details: probe Ouabain (100 uM), read-out: Activity
[6] = target: T1, Solute carrier organic anion transporter family member 1A1; assay: (§1) TP_TRANSPORTER: uptake in Xenopus laevis oocytes; assay type: functional, cell-based, Oocyte
[7] = target: T1, Solute carrier organic anion transporter family member 1A1; assay: TP_TRANSPORTER: inhibition of Ouabain uptake (Ouabain: 100 uM, Digitoxin: 100 uM) in Xenopus laevis oocytes; assay type: functional, cell-based, Oocyte; set-up: scale not given: the % may be the effect or the level left; details: probe Ouabain (100 uM), read-out: Activity
[8] = target: T1, Solute carrier organic anion transporter family member 1A1; assay: TP_TRANSPORTER: inhibition of Ouabain uptake (Ouabain: 100 uM, Digoxigenin: 100 uM) in Xenopus laevis oocytes; assay type: functional, cell-based, Oocyte; set-up: scale not given: the % may be the effect or the level left; details: probe Ouabain (100 uM), read-out: Activity
[9] = target: T1, Solute carrier organic anion transporter family member 1A1; assay: TP_TRANSPORTER: inhibition of Ouabain uptake (Ouabain: 100 uM, E217betaG: 100 uM) in Xenopus laevis oocytes; assay type: functional, cell-based, Oocyte; set-up: scale not given: the % may be the effect or the level left; details: probe Ouabain (100 uM), read-out: Activity
[10] = target: T1, Solute carrier organic anion transporter family member 1A1; assay: TP_TRANSPORTER: inhibition of Ouabain uptake (Ouabain: 100 uM, beta-Estradiol: 100 uM) in Xenopus laevis oocytes; assay type: functional, cell-based, Oocyte; set-up: scale not given: the % may be the effect or the level left; details: probe Ouabain (100 uM), read-out: Activity
[11] = target: T1, Solute carrier organic anion transporter family member 1A1; assay: TP_TRANSPORTER: inhibition of Ouabain uptake (Ouabain: 100 uM, E1S: 100 uM) in Xenopus laevis oocytes; assay type: functional, cell-based; set-up: scale not given: the % may be the effect or the level left; details: oocyte
[12] = target: T1, Solute carrier organic anion transporter family member 1A1; assay: TP_TRANSPORTER: inhibition of Ouabain uptake (Ouabain: 100 uM, Cortisol: 100 uM) in Xenopus laevis oocytes; assay type: functional, cell-based, Oocyte; set-up: scale not given: the % may be the effect or the level left; details: probe Ouabain (100 uM), read-out: Activity
[13] = target: T1, Solute carrier organic anion transporter family member 1A1; assay: TP_TRANSPORTER: inhibition of Ouabain uptake (Ouabain: 100 uM, ICG: 100 uM) in Xenopus laevis oocytes; assay type: functional, cell-based; set-up: scale not given: the % may be the effect or the level left; details: oocyte
[14] = target: T1, Solute carrier organic anion transporter family member 1A1; assay: TP_TRANSPORTER: inhibition of Ouabain uptake (Ouabain: 100 uM, Prednisolone: 100 uM) in Xenopus laevis oocytes; assay type: functional, cell-based, Oocyte; set-up: scale not given: the % may be the effect or the level left; details: probe Ouabain (100 uM), read-out: Activity
[15] = target: T1, Solute carrier organic anion transporter family member 1A1; assay: TP_TRANSPORTER: inhibition of Ouabain uptake (Ouabain: 100 uM, Prednisone: 100 uM) in Xenopus laevis oocytes; assay type: functional, cell-based; set-up: scale not given: the % may be the effect or the level left; details: oocyte
[16] = target: T1, Solute carrier organic anion transporter family member 1A1; assay: TP_TRANSPORTER: inhibition of Ouabain uptake (Ouabain: 100 uM, Rose bengal: 100 uM) in Xenopus laevis oocytes; assay type: functional, cell-based; set-up: scale not given: the % may be the effect or the level left; details: oocyte
[17] = target: T1, Solute carrier organic anion transporter family member 1A1; assay: TP_TRANSPORTER: inhibition of Ouabain uptake (Ouabain: 100 uM, BSP: 100 uM) in Xenopus laevis oocytes; assay type: functional, cell-based, Oocyte; set-up: scale not given: the % may be the effect or the level left; details: probe Ouabain (100 uM), read-out: Activity
[18] = target: T1, Solute carrier organic anion transporter family member 1A1; assay: TP_TRANSPORTER: inhibition of Ouabain uptake (Ouabain: 100 uM, Testosterone: 100 uM) in Xenopus laevis oocytes; assay type: functional, cell-based, Oocyte; set-up: scale not given: the % may be the effect or the level left; details: probe Ouabain (100 uM), read-out: Activity
[19] = substrate: C[C@]12CCC(=O)C=C1CC[C@@H]1[C@@H]2[C@@H](O)C[C@@]2(C)[C@H]1CC[C@]2(O)C(=O)CO; assay: as §1; assay type: functional, cell-based, Oocyte
[20] = substrate: C[C@]12CCC(=O)C=C1CC[C@@H]1[C@@H]2[C@@H](O)C[C@]2(C=O)[C@@H](C(=O)CO)CC[C@@H]12; assay: as §1; assay type: functional, cell-based, Oocyte
[21] = substrate: C[C@]12CC[C@@H]3c4ccc(O)cc4CC[C@H]3[C@@H]1CC[C@@H]2O[C@@H]1O[C@H](C(=O)O)[C@@H](O)[C@H](O)[C@H]1O; assay: as §1; assay type: functional, cell-based, Oocyte
[22] = substrate: C[C@]12CC[C@@H]3c4ccc(OS(=O)(=O)O)cc4CC[C@H]3[C@@H]1CCC2=O; assay: as §1; assay type: functional, cell-based, Oocyte

Molecule: C[C@]12CC[C@@H]3c4ccc(O[C@@H]5O[C@H](C(=O)O)[C@@H](O)[C@H](O)[C@H]5O)cc4CC[C@H]3[C@@H]1CCC2=O
- activity at 100 µM [1]: 24%

Molecule: C[C@]12CC[C@@H]3c4ccc(O[C@@H]5O[C@H](C(=O)O)[C@@H](O)[C@H](O)[C@H]5O)cc4CC[C@H]3[C@@H]1CC[C@@H]2O
- activity at 100 µM [2]: 27%

Molecule: C[C@]12CCC(=O)C=C1CC[C@@H]1[C@@H]2[C@@H](O)C[C@]2(C=O)[C@@H](C(=O)CO)CC[C@@H]12 [ALDOSTERONE]
- Activity [3]: 10%

Molecule: C[C@]12C[C@H](O)[C@H]3[C@@H](CCC4=CC(=O)CC[C@@]43C)[C@@H]1CC[C@@H]2C(=O)CO [CORTICOSTERONE]
- Activity [4]: 15%

Molecule: C[C@@H]1C[C@H]2[C@@H]3CCC4=CC(=O)C=C[C@]4(C)[C@@]3(F)[C@@H](O)C[C@]2(C)[C@@]1(O)C(=O)CO [DEXAMETHASONE]
- activity at 100 µM [5]: 26%
- Activity ([6]; oocyte): substrate [+]

Molecule: C[C@H]1O[C@@H](O[C@H]2[C@@H](O)C[C@H](O[C@H]3[C@@H](O)C[C@H](O[C@H]4CC[C@@]5(C)[C@H](CC[C@@H]6[C@@H]5CC[C@]5(C)[C@@H](C7=CC(=O)OC7)CC[C@]65O)C4)O[C@@H]3C)O[C@@H]2C)C[C@H](O)[C@@H]1O [DIGITOXIN]
- activity at 100 µM [7]: 29%

Molecule: C[C@]12CC[C@H](O)C[C@H]1CC[C@@H]1[C@@H]2C[C@@H](O)[C@]2(C)[C@@H](C3=CC(=O)OC3)CC[C@]12O [DIGOXIGENIN]
- activity at 100 µM [8]: 19%

Molecule: C[C@]12CC[C@@H]3c4ccc(O)cc4CC[C@H]3[C@@H]1CC[C@@H]2O[C@@H]1O[C@H](C(=O)O)[C@@H](O)[C@H](O)[C@H]1O [ESTRADIOL 17B GLUCURONIDE]
- activity at 100 µM [9]: 16%

Molecule: C[C@]12CC[C@@H]3c4ccc(O)cc4CC[C@H]3[C@@H]1CC[C@@H]2O [ESTRADIOL]
- activity at 100 µM [10]: 40%

Molecule: C[C@]12CC[C@@H]3c4ccc(OS(=O)(=O)O)cc4CC[C@H]3[C@@H]1CCC2=O [ESTRONE SULFURIC ACID]
- Activity [11]: 10%

Molecule: C[C@]12CCC(=O)C=C1CC[C@@H]1[C@@H]2[C@@H](O)C[C@@]2(C)[C@H]1CC[C@]2(O)C(=O)CO [HYDROCORTISONE]
- activity at 100 µM [12]: 19%

Molecule: CC1(C)C(/C=C/C=C/C=C/C=C2/N(CCCCS(=O)(=O)[O-])c3ccc4ccccc4c3C2(C)C)=[N+](CCCCS(=O)(=O)[O-])c2ccc3ccccc3c21.[Na+] [INDOCYANINE GREEN]
- Activity [13]: 6%

Molecule: C[C@@H]1O[C@@H](O[C@H]2C[C@@H](O)[C@]3(CO)[C@H]4[C@H](O)C[C@]5(C)[C@@H](C6=CC(=O)OC6)CC[C@]5(O)[C@@H]4CC[C@]3(O)C2)[C@H](O)[C@H](O)[C@H]1O [OUABAIN]
- Km ([6]; Xenopus laevis oocytes): 1700 µM

Molecule: C[C@]12C=CC(=O)C=C1CC[C@@H]1[C@@H]2[C@@H](O)C[C@@]2(C)[C@H]1CC[C@]2(O)C(=O)CO [PREDNISOLONE]
- activity at 100 µM [14]: 40%

Molecule: C[C@]12C=CC(=O)C=C1CC[C@@H]1[C@@H]2C(=O)C[C@@]2(C)[C@H]1CC[C@]2(O)C(=O)CO [PREDNISONE]
- Activity [15]: 34%

Molecule: O=C([O-])c1c(Cl)c(Cl)c(Cl)c(Cl)c1-c1c2cc(I)c(=O)c(I)c-2oc2c(I)c([O-])c(I)cc12.[Na+].[Na+] [ROSE BENGAL SODIUM]
- Activity [16]: 4%

Molecule: O=C1OC(c2ccc(O)c(S(=O)(=O)O)c2)(c2ccc(O)c(S(=O)(=O)O)c2)c2c(Br)c(Br)c(Br)c(Br)c21 [SULFOBROMOPHTHALEIN SODIUM]
- activity at 100 µM [17]: 6%

Molecule: C[C@]12CC[C@H]3[C@@H](CCC4=CC(=O)CC[C@@]43C)[C@@H]1CC[C@@H]2O [TESTOSTERONE]
- activity at 100 µM [18]: 16%

B1: Solute carrier organic anion transporter family member 1A1 (Rattus norvegicus) (protein)
chain: MEETEKKIATQEGRLFSKMKVFLLSLTCACLTKSLSGVYMNSMLTQIERQFDISTSVAGLINGSFEIGNLFFIVFVSYFGTKLHRPVVIGIGCVIMGLGCLLMSLPHFFMGRYEYETTISPTGNLSSNSFLCMENRTQTLKPTQDPAECVKEMKSLMWICVMVGNIIRGIGETPIVPLGISYIEDFAKSENSPLYIGILEMGKVAGPIFGLLLGSYCAQIYVDIGSVNTDDLTITPSDTRWVGAWWIGFLVCAGVNILTSIPFFFLPKALPKKGQQENVAVTKDGKVEKYGGQAREENLGITKDFLTFMKRLFCNPIYMLFILTSVLQVNGFINKFTFLPKYLEQQYGKSTAEAIFLIGVYSLPPICLGYLIGGFIMKKFKITVKKAAYLAFCLSVFEYLLFLCHFMLTCDNAAVAGLTTSYKGVQHQLHVESKVLADCNTRCSCSTNTWDPVCGDNGVAYMSACLAGCKKFVGTGTNMVFQDCSCIQSLGNSSAVLGLCKKGPECANRLQYFLILTIIISFIYSLTAIPGYMVFLRCVKSEEKSLGVGLHTFCIRVFAGIPAPVYFGALIDRTCLHWGTLKCGQRGACRMYDINSFRHIYLGLPIALRGSSYLPAFFILILMRKFQFPGDIDSSATDHTEMMLGEKESEHTDVHGSPQVENDGELKTKL
- Km [19]: 13 µM
- Km [20]: 0.015 µM
- Km [21]: 3 µM
- Km [22]: 4.5 µM
